Series [1] in a line: Circular dichroism spectroscopy, helical residues per peptide chain. It is filed as physicochemical. The conditions noted are these: calculated from [θ]222. The procedure, abridged:
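Helical residue count per peptide chain derived from 222 nm mean residue ellipticity via −[θ]222×30/28,000. Spectra taken at 20 °C as four-scan averages, with concentrations verified by absorbance at 280 nm (single tryptophan, 5700 M^−1).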

The next series has as its target T1, PTHR-delNt (Homo sapiens, UniProt Q03431, DEL24-181).
T1 construct: expressed in transfected cells; host or cells: COS-7 cells, transient co-transfection; membranes prepared
T1 sequence (Q03431 with tags, fused parts or gaps DEL24-181): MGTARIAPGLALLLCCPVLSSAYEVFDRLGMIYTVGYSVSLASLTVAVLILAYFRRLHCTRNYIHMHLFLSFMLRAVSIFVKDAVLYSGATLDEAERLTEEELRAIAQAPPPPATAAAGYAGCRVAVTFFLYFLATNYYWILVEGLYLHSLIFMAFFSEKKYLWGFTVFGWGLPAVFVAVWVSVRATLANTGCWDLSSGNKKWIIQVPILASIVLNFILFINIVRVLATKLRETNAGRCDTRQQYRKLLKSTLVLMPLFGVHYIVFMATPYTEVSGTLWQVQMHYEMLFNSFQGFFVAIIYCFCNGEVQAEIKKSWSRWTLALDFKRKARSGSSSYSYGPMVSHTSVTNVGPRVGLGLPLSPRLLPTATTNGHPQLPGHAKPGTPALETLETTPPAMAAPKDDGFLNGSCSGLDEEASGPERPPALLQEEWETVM
Briefly: Competition binding in COS-7 cell membranes with 125I-[Aib1,3,M]PTH(1-15)NH2 tracer. The conditions noted are these: COS-7 membranes cotransfected with negative-dominant Gαs, read-out: PTHR-delNT (COS-7) IC50. Summed up: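 IC50 from four-parameter logistic fitting of specific tracer binding, extrapolated to maximal [Aib1,3,M]PTH(1-15)NH2 inhibition when displacement was incomplete. Competitor peptides (3×10^−9 to 1×10^−5 M) and 125I-[Aib1,3,M]PTH(1-15)NH2 were incubated 90 min, 21 °C, with membranes (20 µg/well) of COS-7 cells expressing N-terminally truncated (Δ24–181) human PTHR with dominant-negative Gαs; 1×10^−6 M unlabeled tracer peptide defined non-specific binding.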

The next series addresses T2, ROS 17/2.8 cells (Rattus norvegicus, UniProt P25961).
T2 construct: ROS 17/2.8 cells are rat osteosarcoma cells and express the endogenous PTHR; host or cells: ROS 17/2.8 cells
T2 sequence (P25961 27-591): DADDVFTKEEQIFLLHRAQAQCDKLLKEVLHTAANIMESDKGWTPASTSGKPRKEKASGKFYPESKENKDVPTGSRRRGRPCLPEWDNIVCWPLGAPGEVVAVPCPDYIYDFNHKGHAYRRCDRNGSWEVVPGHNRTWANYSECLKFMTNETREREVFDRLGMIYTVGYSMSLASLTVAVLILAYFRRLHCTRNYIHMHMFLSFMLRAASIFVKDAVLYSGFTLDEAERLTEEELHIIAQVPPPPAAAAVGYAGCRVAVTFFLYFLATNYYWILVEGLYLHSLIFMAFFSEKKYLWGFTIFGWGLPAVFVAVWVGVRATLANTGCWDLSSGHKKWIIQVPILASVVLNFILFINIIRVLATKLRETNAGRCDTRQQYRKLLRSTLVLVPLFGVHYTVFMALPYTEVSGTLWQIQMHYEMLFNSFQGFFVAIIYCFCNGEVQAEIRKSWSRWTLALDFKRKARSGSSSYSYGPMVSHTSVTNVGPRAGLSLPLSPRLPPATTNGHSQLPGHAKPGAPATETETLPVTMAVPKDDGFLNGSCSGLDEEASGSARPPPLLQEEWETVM
The following applies: position-20 substitutions in PTH(1-31)NH2; cited from earlier work.

Setting [2] is: [Ala1,Arg19]hPTH(1-31)NH2 analogs.

The structures appear in SMILES notation. Where two headings read alike, the source gives them in different places. Where a SMILES comes first, the peptide text is derived from it. [ ]: non-standard residue; d: D form. Cha = N[C@@H](CC1CCCCC1)C(=O)O

Usually IC50 stands for the point on the concentration scale where inhibition reaches its midpoint. Take `CC[C@H](C)[C@H](NC(=O)[C@H](CCC(=O)O)NC(=O)[C@H](CO)NC(=O)[C@@H](NC(=O)[C@@H](N)CO)C(C)C)C(=O)N[C@@H](CCC(N)=O)C(=O)N[C@@H](CC(C)C)C(=O)N[C@@H](CCSC)C(=O)N[C@@H](Cc1c[nH]cn1)C(=O)N[C@@H](CC(N)=O)C(=O)N[C@@H](CC(C)C)C(=O)NCC(=O)N[C@@H](CCCCN)C(=O)N[C@@H](Cc1c[nH]cn1)C(=O)N[C@@H](CC(C)C)C(=O)N[C@@H](CC(N)=O)C(=O)N[C@@H](CO)C(=O)N[C@@H](CCSC)C(=O)N[C@@H](CCC(=O)O)C(=O)N[C@@H](CCCNC(N)=O)C(=O)N[C@H](C(=O)N[C@@H](CCC(=O)O)C(=O)N[C@@H](Cc1c[nH]c2ccccc12)C(=O)N[C@@H](CC(C)C)C(=O)N[C@@H](CCCNC(=N)N)C(=O)N[C@@H](CCCCN)C(=O)N[C@@H](CCCCN)C(=O)N[C@@H](CC(C)C)C(=O)N[C@@H](CCC(N)=O)C(=O)N[C@@H](CC(=O)O)C(=O)N[C@H](C(N)=O)C(C)C)C(C)C` [Arg^20→Cit]: the CD helical residues in series [1] (hPTH(1-31)NH2 analogs) is given as 9. Moreover, the IC50 at PTHR-delNt (hPTH(1-31)NH2 analogs) stood at 10.6 µM. On ROS 17/2.8 cells, the “reduction of cAMP-stimulating potency” value is 8 fold.
For `CC[C@H](C)[C@H](NC(=O)[C@H](CCC(=O)O)NC(=O)[C@H](CO)NC(=O)[C@@H](NC(=O)[C@H](C)N)C(C)C)C(=O)N[C@@H](CCC(N)=O)C(=O)N[C@@H](CC(C)C)C(=O)N[C@@H](CCSC)C(=O)N[C@@H](Cc1c[nH]cn1)C(=O)N[C@@H](CC(N)=O)C(=O)N[C@@H](CC(C)C)C(=O)NCC(=O)N[C@@H](CCCCN)C(=O)N[C@@H](Cc1c[nH]cn1)C(=O)N[C@@H](CC(C)C)C(=O)N[C@@H](CC(N)=O)C(=O)N[C@@H](CC1CCCCC1)C(=O)N[C@@H](CCSC)C(=O)N[C@@H](CCCNC(=N)N)C(=O)N[C@@H](CCCNC(=N)N)C(=O)N[C@H](C(=O)N[C@@H](CCC(=O)O)C(=O)N[C@@H](Cc1c[nH]c2ccccc12)C(=O)N[C@@H](CC(C)C)C(=O)N[C@@H](CCCNC(=N)N)C(=O)N[C@@H](CCCCN)C(=O)N[C@@H](CCCCN)C(=O)N[C@@H](CC(C)C)C(=O)N[C@@H](CCC(N)=O)C(=O)N[C@@H](CC(=O)O)C(=O)N[C@H](C(N)=O)C(C)C)C(C)C` [Ser^17→Cha] (H-AVSEIQLMHNLGKHLN[Cha]MRRVEWLRKKLQDV-NH2; N-terminus assumed), the CD helical residues in series [1] (setting [2]) was 9. Moreover, the IC50 at PTHR-delNt (setting [2]) was determined as 0.179 ± 0.041 µM.

Source of the values: patent US8143374B2, “Polypeptide derivatives of parathyroid hormone (PTH)” (The General Hospital Corporation, priority 2006, dated 2012).
